#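 Growth conditions: 96-well plates. Treatment: test compound, 48 hours, 5 concentrations. Analysis: linear interpolation between bracketing concentrations; unreached endpoints set to highest concentration. At the GI50, growth is halved.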 The source made the active and inactive calls. Cut-off read from the data, not from the text of the source: active = GI50 up to about 1.1 µM and inactive = higher.
# Assays:
# Assay in all cases: growth of human tumour cells (NCI), 48 h
# 786-0 = tested on: 786-0
# A498 = tested on: A498
# A549 = tested on: A549
# BT-549 = tested on: BT-549
# CAKI-1 = tested on: CAKI-1
# CCRF-CEM = tested on: CCRF-CEM
# COLO 205 = tested on: COLO 205
# DU-145 = tested on: DU-145
# EKVX = tested on: EKVX
# HCC 2998 = tested on: HCC 2998
# HCT-116 = tested on: HCT-116
# HCT-15 = tested on: HCT-15
# HOP-62 = tested on: HOP-62
# HOP-92 = tested on: HOP-92
# HT-29 = tested on: HT-29
# IGROV-1 = tested on: IGROV-1
# K562 = tested on: K562
# KM12 = tested on: KM12
# LOX IMVI = tested on: LOX IMVI
# M14 = tested on: M14
# MCF7 = tested on: MCF7
# MDA-MB-231 = tested on: MDA-MB-231
# MDA-MB-435 = tested on: MDA-MB-435
# MDA-N = tested on: MDA-N
# MOLT-4 = tested on: MOLT-4
# Malme-3M = tested on: Malme-3M
# NCI-H226 = tested on: NCI-H226
# NCI-H23 = tested on: NCI-H23
# NCI/ADR-RES = tested on: NCI/ADR-RES
# OVCAR-3 = tested on: OVCAR-3
# OVCAR-4 = tested on: OVCAR-4
# OVCAR-5 = tested on: OVCAR-5
# OVCAR-8 = tested on: OVCAR-8
# PC-3 = tested on: PC-3
# RPMI-8226 = tested on: RPMI-8226
# RXF 393 = tested on: RXF 393
# SF-268 = tested on: SF-268
# SF-295 = tested on: SF-295
# SF-539 = tested on: SF-539
# SK-MEL-28 = tested on: SK-MEL-28
# SK-MEL-2 = tested on: SK-MEL-2
# SK-MEL-5 = tested on: SK-MEL-5
# SK-OV-3 = tested on: SK-OV-3
# SN12C = tested on: SN12C
# SNB-75 = tested on: SNB-75
# SR = tested on: SR
# SW-620 = tested on: SW-620
# T47D = tested on: T47D
# TK-10 = tested on: TK-10
# U-251 = tested on: U-251
# UACC-257 = tested on: UACC-257
# UACC-62 = tested on: UACC-62
# ACHN = tested on: ACHN
# HL-60 = tested on: HL-60
# Hs-578T = tested on: Hs-578T
# NCI-H460 = tested on: NCI-H460
# SNB-19 = tested on: SNB-19
# UO-31 = tested on: UO-31
# NCI-H522 = tested on: NCI-H522
smiles,measurement,setting,value
CCOC(=O)COc1cc(-c2ccccc2)nc2cc(F)ccc12,GI50,786-0,> 100 µM (inactive)
same,GI50,A498,> 100 µM (inactive)
same,GI50,A549,> 100 µM (inactive)
same,GI50,BT-549,> 100 µM (inactive)
same,GI50,CAKI-1,> 100 µM (inactive)
same,GI50,CCRF-CEM,85.7 µM (inactive)
same,GI50,COLO 205,> 100 µM (inactive)
same,GI50,DU-145,> 100 µM (inactive)
same,GI50,EKVX,> 100 µM (inactive)
same,GI50,HCC 2998,> 100 µM (inactive)
same,GI50,HCT-116,> 100 µM (inactive)
same,GI50,HCT-15,> 100 µM
same,GI50,HOP-62,> 100 µM (inactive)
same,GI50,HOP-92,52 µM (inactive)
same,GI50,HT-29,> 100 µM (inactive)
same,GI50,IGROV-1,> 100 µM (inactive)
same,GI50,K562,> 100 µM (inactive)
same,GI50,KM12,> 100 µM (inactive)
same,GI50,LOX IMVI,> 100 µM (inactive)
same,GI50,M14,> 100 µM (inactive)
same,GI50,MCF7,> 100 µM (inactive)
same,GI50,MDA-MB-231,> 100 µM (inactive)
same,GI50,MDA-MB-435,> 100 µM (inactive)
same,GI50,MDA-N,> 100 µM (inactive)
same,GI50,MOLT-4,> 100 µM (inactive)
same,GI50,Malme-3M,> 100 µM (inactive)
same,GI50,NCI-H226,> 100 µM (inactive)
same,GI50,NCI-H23,> 100 µM (inactive)
same,GI50,NCI/ADR-RES,> 100 µM (inactive)
same,GI50,OVCAR-3,> 100 µM (inactive)
same,GI50,OVCAR-4,42 µM (inactive)
same,GI50,OVCAR-5,> 100 µM (inactive)
same,GI50,OVCAR-8,> 100 µM (inactive)
same,GI50,PC-3,> 100 µM (inactive)
same,GI50,RPMI-8226,> 100 µM (inactive)
same,GI50,RXF 393,> 100 µM (inactive)
same,GI50,SF-268,> 100 µM (inactive)
same,GI50,SF-295,> 100 µM (inactive)
same,GI50,SF-539,39.7 µM (inactive)
same,GI50,SK-MEL-28,> 100 µM (inactive)
same,GI50,SK-MEL-2,> 100 µM (inactive)
same,GI50,SK-MEL-5,> 100 µM (inactive)
same,GI50,SK-OV-3,> 100 µM (inactive)
same,GI50,SN12C,> 100 µM (inactive)
same,GI50,SNB-75,> 100 µM (inactive)
same,GI50,SR,> 100 µM (inactive)
same,GI50,SW-620,> 100 µM (inactive)
same,GI50,T47D,> 100 µM (inactive)
same,GI50,TK-10,> 100 µM (inactive)
same,GI50,U-251,> 100 µM (inactive)
same,GI50,UACC-257,> 100 µM (inactive)
same,GI50,UACC-62,> 100 µM (inactive)
COc1ccc(CCc2nccn2C)cc1OC,GI50,786-0,> 100 µM (inactive)
same,GI50,A498,> 100 µM (inactive)
same,GI50,A549,> 100 µM (inactive)
same,GI50,ACHN,> 100 µM (inactive)
same,GI50,BT-549,> 100 µM (inactive)
same,GI50,CAKI-1,> 100 µM (inactive)
same,GI50,CCRF-CEM,> 100 µM (inactive)
same,GI50,COLO 205,> 100 µM (inactive)
same,GI50,EKVX,> 100 µM (inactive)
same,GI50,HCC 2998,> 100 µM (inactive)
same,GI50,HCT-116,> 100 µM (inactive)
same,GI50,HCT-15,> 100 µM
same,GI50,HL-60,> 100 µM (inactive)
same,GI50,HOP-62,> 100 µM (inactive)
same,GI50,HOP-92,> 100 µM (inactive)
same,GI50,HT-29,> 100 µM (inactive)
same,GI50,Hs-578T,> 100 µM (inactive)
same,GI50,IGROV-1,> 100 µM (inactive)
same,GI50,K562,> 100 µM (inactive)
same,GI50,LOX IMVI,> 100 µM (inactive)
same,GI50,M14,> 100 µM (inactive)
same,GI50,MCF7,> 100 µM (inactive)
same,GI50,MDA-MB-435,> 100 µM (inactive)
same,GI50,MDA-N,> 100 µM (inactive)
same,GI50,MOLT-4,> 100 µM (inactive)
same,GI50,Malme-3M,> 100 µM (inactive)
same,GI50,NCI-H23,> 100 µM (inactive)
same,GI50,NCI-H460,> 100 µM (inactive)
same,GI50,NCI/ADR-RES,> 100 µM (inactive)
same,GI50,OVCAR-3,> 100 µM (inactive)
same,GI50,OVCAR-4,> 100 µM (inactive)
same,GI50,OVCAR-5,> 100 µM (inactive)
same,GI50,OVCAR-8,> 100 µM (inactive)
same,GI50,PC-3,> 100 µM (inactive)
same,GI50,RPMI-8226,> 100 µM (inactive)
same,GI50,SF-268,> 100 µM (inactive)
same,GI50,SF-295,> 100 µM (inactive)
same,GI50,SF-539,> 100 µM (inactive)
same,GI50,SK-MEL-28,> 100 µM (inactive)
same,GI50,SK-MEL-2,> 100 µM (inactive)
same,GI50,SK-MEL-5,> 100 µM (inactive)
same,GI50,SK-OV-3,> 100 µM (inactive)
same,GI50,SN12C,> 100 µM (inactive)
same,GI50,SNB-19,> 100 µM (inactive)
same,GI50,SR,> 100 µM (inactive)
same,GI50,SW-620,> 100 µM (inactive)
same,GI50,TK-10,> 100 µM (inactive)
same,GI50,UACC-257,> 100 µM (inactive)
same,GI50,UACC-62,> 100 µM (inactive)
same,GI50,UO-31,> 100 µM (inactive)
C[C@H]1[C@H](N2CCCC2)O[Si](C(C)(C)C)(C(C)(C)C)[C@@H]1C,GI50,786-0,> 100 µM (inactive)
same,GI50,A498,> 100 µM (inactive)
same,GI50,A549,> 100 µM (inactive)
same,GI50,ACHN,46.8 µM (inactive)
same,GI50,BT-549,> 100 µM (inactive)
same,GI50,CAKI-1,> 100 µM (inactive)
same,GI50,CCRF-CEM,36.2 µM (inactive)
same,GI50,COLO 205,> 100 µM (inactive)
same,GI50,EKVX,> 100 µM (inactive)
same,GI50,HCC 2998,> 100 µM (inactive)
same,GI50,HCT-116,> 100 µM (inactive)
same,GI50,HCT-15,> 100 µM
same,GI50,HL-60,13.7 µM (inactive)
same,GI50,HOP-62,> 100 µM (inactive)
same,GI50,HOP-92,< 0.01 µM (active)
same,GI50,HT-29,> 100 µM (inactive)
same,GI50,IGROV-1,> 100 µM (inactive)
same,GI50,K562,97.3 µM (inactive)
same,GI50,KM12,> 100 µM (inactive)
same,GI50,LOX IMVI,> 100 µM (inactive)
same,GI50,M14,> 100 µM (inactive)
same,GI50,MCF7,> 100 µM (inactive)
same,GI50,MDA-MB-231,> 100 µM (inactive)
same,GI50,MDA-MB-435,> 100 µM (inactive)
same,GI50,MDA-N,> 100 µM (inactive)
same,GI50,MOLT-4,> 100 µM (inactive)
same,GI50,Malme-3M,59.2 µM (inactive)
same,GI50,NCI-H226,> 100 µM (inactive)
same,GI50,NCI-H23,> 100 µM (inactive)
same,GI50,NCI-H522,> 100 µM (inactive)
same,GI50,NCI/ADR-RES,> 100 µM (inactive)
same,GI50,OVCAR-3,> 100 µM (inactive)
same,GI50,OVCAR-4,> 100 µM (inactive)
same,GI50,OVCAR-5,> 100 µM (inactive)
same,GI50,OVCAR-8,> 100 µM (inactive)
same,GI50,PC-3,99.5 µM (inactive)
same,GI50,RPMI-8226,> 100 µM (inactive)
same,GI50,SF-295,> 100 µM (inactive)
same,GI50,SF-539,> 100 µM (inactive)
same,GI50,SK-MEL-28,> 100 µM (inactive)
same,GI50,SK-MEL-2,> 100 µM (inactive)
same,GI50,SK-MEL-5,> 100 µM (inactive)
same,GI50,SK-OV-3,> 100 µM (inactive)
same,GI50,SN12C,> 100 µM (inactive)
same,GI50,SNB-19,0.964 µM (active)
same,GI50,SNB-75,74.6 µM (inactive)
same,GI50,SW-620,> 100 µM (inactive)
same,GI50,T47D,> 100 µM (inactive)
same,GI50,TK-10,> 100 µM (inactive)
same,GI50,U-251,> 100 µM (inactive)
same,GI50,UACC-257,> 100 µM (inactive)
same,GI50,UACC-62,> 100 µM (inactive)
same,GI50,UO-31,> 100 µM (inactive)
